Data reported in PubChem BioAssay AID1259407 (Chemical Carcinogenesis Research Information System (CCRIS), 2018).
The source made the active and inactive calls. No rule for the calls is given here.

Test system: CCRIS mutagenicity, Ames/micronucleus/aberration tests
Experiment: CCRIS mutagenicity studies
[1] = Test System: AMES SALMONELLA TYPHIMURIUM, Strain/Indicator: TA98, Metabolic Activation: NONE, Method: STANDARD PLATE
[2] = Test System: AMES SALMONELLA TYPHIMURIUM, Strain/Indicator: TA100, Metabolic Activation: NONE, Method: STANDARD PLATE

Oc1ccccc1-c1ccccc1
mutagenic call (Test System: AMES SALMONELLA TYPHIMURIUM, Strain/Indicator: TA98, Metabolic Activation: HAMSTER, LIVER, S-9, AROCLOR 1254 (10%), Method: STANDARD PLATE): inactive; negative | mutagenic call (Test System: AMES SALMONELLA TYPHIMURIUM, Strain/Indicator: TA98, Metabolic Activation: HAMSTER, LIVER, S-9, AROCLOR 1254, Method: PREINCUBATION): inactive; negative | mutagenic call (Test System: AMES SALMONELLA TYPHIMURIUM, Strain/Indicator: TA98, Metabolic Activation: NONE, Method: HOST-MEDIATED): inactive; negative | mutagenic call (Test System: AMES SALMONELLA TYPHIMURIUM, Strain/Indicator: TA98, Metabolic Activation: NONE, Method: PREINCUBATION): inactive; negative | mutagenic call [1]: inactive; negative | mutagenic call (Test System: AMES SALMONELLA TYPHIMURIUM, Strain/Indicator: TA98, Metabolic Activation: RAT, LIVER, S-9, AROCLOR 1254 (10%), Method: STANDARD PLATE): inactive; negative | mutagenic call (Test System: AMES SALMONELLA TYPHIMURIUM, Strain/Indicator: TA98, Metabolic Activation: RAT, LIVER, S-9, AROCLOR 1254, Method: PREINCUBATION): inactive; negative | mutagenic call (Test System: AMES SALMONELLA TYPHIMURIUM, Strain/Indicator: TA100, Metabolic Activation: HAMSTER, LIVER, S-9, AROCLOR 1254 (10%), Method: STANDARD PLATE): inactive; negative | mutagenic call (Test System: AMES SALMONELLA TYPHIMURIUM, Strain/Indicator: TA100, Metabolic Activation: HAMSTER, LIVER, S-9, AROCLOR 1254, Method: PREINCUBATION): inactive; negative | mutagenic call (Test System: AMES SALMONELLA TYPHIMURIUM, Strain/Indicator: TA100, Metabolic Activation: NONE, Method: HOST-MEDIATED): inactive; negative | mutagenic call (Test System: AMES SALMONELLA TYPHIMURIUM, Strain/Indicator: TA100, Metabolic Activation: NONE, Method: PREINCUBATION): inactive; negative | mutagenic call [2]: inactive; negative | mutagenic call (Test System: AMES SALMONELLA TYPHIMURIUM, Strain/Indicator: TA100, Metabolic Activation: RAT, LIVER, S-9, AROCLOR 1254 (10%), Method: STANDARD PLATE): inactive; negative | mutagenic call (Test System: AMES SALMONELLA TYPHIMURIUM, Strain/Indicator: TA100, Metabolic Activation: RAT, LIVER, S-9, AROCLOR 1254, Method: PREINCUBATION): inactive; negative | mutagenic call (Test System: AMES SALMONELLA TYPHIMURIUM, Strain/Indicator: TA1535, Metabolic Activation: HAMSTER, LIVER, S-9, AROCLOR 1254 (10%), Method: STANDARD PLATE): inactive; negative | mutagenic call (Test System: AMES SALMONELLA TYPHIMURIUM, Strain/Indicator: TA1535, Metabolic Activation: HAMSTER, LIVER, S-9, AROCLOR 1254, Method: PREINCUBATION): inactive; negative | mutagenic call (Test System: AMES SALMONELLA TYPHIMURIUM, Strain/Indicator: TA1535, Metabolic Activation: NONE, Method: PREINCUBATION): active; positive | mutagenic call (Test System: AMES SALMONELLA TYPHIMURIUM, Strain/Indicator: TA1535, Metabolic Activation: NONE, Method: STANDARD PLATE): inactive; negative | mutagenic call (Test System: AMES SALMONELLA TYPHIMURIUM, Strain/Indicator: TA1535, Metabolic Activation: RAT, LIVER, S-9, AROCLOR 1254 (10%), Method: STANDARD PLATE): inactive; negative | mutagenic call (Test System: AMES SALMONELLA TYPHIMURIUM, Strain/Indicator: TA1535, Metabolic Activation: RAT, LIVER, S-9, AROCLOR 1254, Method: PREINCUBATION): inactive; negative | mutagenic call (Test System: AMES SALMONELLA TYPHIMURIUM, Strain/Indicator: TA1537, Metabolic Activation: HAMSTER, LIVER, S-9, AROCLOR 1254 (10%), Method: STANDARD PLATE): inactive; negative | mutagenic call (Test System: AMES SALMONELLA TYPHIMURIUM, Strain/Indicator: TA1537, Metabolic Activation: HAMSTER, LIVER, S-9, AROCLOR 1254, Method: PREINCUBATION): inactive; negative | mutagenic call (Test System: AMES SALMONELLA TYPHIMURIUM, Strain/Indicator: TA1537, Metabolic Activation: NONE, Method: PREINCUBATION): inactive; negative | mutagenic call (Test System: AMES SALMONELLA TYPHIMURIUM, Strain/Indicator: TA1537, Metabolic Activation: NONE, Method: STANDARD PLATE): inactive; negative | mutagenic call (Test System: AMES SALMONELLA TYPHIMURIUM, Strain/Indicator: TA1537, Metabolic Activation: RAT, LIVER, S-9, AROCLOR 1254 (10%), Method: STANDARD PLATE): inactive; negative | mutagenic call (Test System: AMES SALMONELLA TYPHIMURIUM, Strain/Indicator: TA1537, Metabolic Activation: RAT, LIVER, S-9, AROCLOR 1254, Method: PREINCUBATION): inactive; negative | mutagenic call (Test System: AMES SALMONELLA TYPHIMURIUM, Strain/Indicator: TA1538, Metabolic Activation: HAMSTER, LIVER, S-9, AROCLOR 1254 (10%), Method: STANDARD PLATE): inactive; negative | mutagenic call (Test System: AMES SALMONELLA TYPHIMURIUM, Strain/Indicator: TA1538, Metabolic Activation: NONE, Method: STANDARD PLATE): inactive; negative | mutagenic call (Test System: AMES SALMONELLA TYPHIMURIUM, Strain/Indicator: TA1538, Metabolic Activation: RAT, LIVER, S-9, AROCLOR 1254 (10%), Method: STANDARD PLATE): inactive; negative | mutagenic call (Test System: CHO/HGPRT, Strain/Indicator: CHO/GIEMSA, Metabolic Activation: NONE, Method: STANDARD PLATE): active; positive | mutagenic call (Test System: CHO/HGPRT, Strain/Indicator: CHO/GIEMSA, Metabolic Activation: RAT, LIVER, S-9, AROCLOR 1254, Method: STANDARD PLATE): inactive; negative | mutagenic call (Test System: E. COLI, Strain/Indicator: WP2, Metabolic Activation: NONE, Method: HOST-MEDIATED): inactive; negative | mutagenic call (Test System: Mouse lymphoma, Strain/Indicator: L5178Y (tk+/tk-), Metabolic Activation: None, Method: Suspension/plate): inactive; negative | mutagenic call (Test System: Mouse lymphoma, Strain/Indicator: L5178Y (tk+/tk-), Metabolic Activation: Rat, Liver, S-9, Aroclor 1254, Method: Suspension/plate): active; equivocal (previously evaluated positive)

C[C@@H]1C[C@]2(O[C@@H]2C)C(=O)O[C@@H]2CCN(C)C/C=C(/COC(=O)[C@]1(C)O)C2=O
mutagenic call (Test System: AMES SALMONELLA TYPHIMURIUM, Strain/Indicator: TA100, Metabolic Activation: HAMSTER, LIVER, S-9, PCB, Method: PREINCUBATION): inactive; negative; by authors criteria results are positive | mutagenic call (Test System: AMES SALMONELLA TYPHIMURIUM, Strain/Indicator: TA100, Metabolic Activation: RAT, LIVER, S-9, PCB, Method: PREINCUBATION): active; positive | mutagenic call (Test System: UDS RAT HEPATOCYTES, Strain/Indicator: THY INCORP, Metabolic Activation: NONE, Method: AUTORADIOGRAPHY): active; positive

N#Cc1ccc(C(=O)ON(OCc2ccccc2)C(=O)c2ccccc2)cc1
mutagenic call [2]: active; positive | mutagenic call (Test System: AMES SALMONELLA TYPHIMURIUM, Strain/Indicator: TA100, Metabolic Activation: RAT, S-9, AROCLOR, Method: STANDARD PLATE): active; positive

[Cu+2].[O-]c1cccc2cccnc12.[O-]c1cccc2cccnc12
mutagenic call [1]: inactive; negative | mutagenic call (Test System: AMES SALMONELLA TYPHIMURIUM, Strain/Indicator: TA98, Metabolic Activation: RAT LIVER S-9, AROCLOR 1254, Method: STANDARD PLATE): inactive; negative | mutagenic call [2]: inactive; negative | mutagenic call (Test System: AMES SALMONELLA TYPHIMURIUM, Strain/Indicator: TA100, Metabolic Activation: RAT LIVER S-9, AROCLOR 1254, Method: STANDARD PLATE): active; positive

Cc1nc2c(C)cc3c(nc(N)n3C)c2nc1C
mutagenic call (Test System: AMES SALMONELLA TYPHIMURIUM, Strain/Indicator: TA98, Metabolic Activation: RAT, LIVER, S-9, AROCLOR 1254, Method: STANDARD PLATE): active; positive

CCN(CCCC(=O)O)N=O
mutagenic call (Test System: AMES SALMONELLA TYPHIMURIUM, Strain/Indicator: TA1535, Metabolic Activation: RAT, LIVER, S-9, KC500 OR PHENOBARBITAL, Method: LIQUID SUSPENSION): active; positive

N#Cc1cccc2c([N+](=O)[O-])cccc12
mutagenic call [2]: active; positive | mutagenic call (Test System: AMES SALMONELLA TYPHIMURIUM, Strain/Indicator: TA100, Metabolic Activation: S-9 MIX, Method: STANDARD PLATE): active; positive

O=[N+]([O-])c1ccc2ccc3cc4c(c5ccc1c2c35)[C@H](O)[C@@H](O)C=C4
mutagenic call (Test System: AMES SALMONELLA TYPHIMURIUM, Strain/Indicator: TA98(1,8-DNP6), Metabolic Activation: NONE): active; positive | mutagenic call (Test System: AMES SALMONELLA TYPHIMURIUM, Strain/Indicator: TA98(1,8-DNP6), Metabolic Activation: RAT, LIVER, S-9, AROCLOR 1254): active; positive | mutagenic call (Test System: AMES SALMONELLA TYPHIMURIUM, Strain/Indicator: TA98(NR), Metabolic Activation: NONE): active; positive | mutagenic call (Test System: AMES SALMONELLA TYPHIMURIUM, Strain/Indicator: TA98(NR), Metabolic Activation: RAT, LIVER, S-9, AROCLOR 1254): active; positive | mutagenic call (Test System: AMES SALMONELLA TYPHIMURIUM, Strain/Indicator: TA98, Metabolic Activation: NONE): active; positive | mutagenic call (Test System: AMES SALMONELLA TYPHIMURIUM, Strain/Indicator: TA98, Metabolic Activation: RAT, LIVER, S-9, AROCLOR 1254): active; positive | mutagenic call (Test System: CHINESE HAMSTER OVARY, Strain/Indicator: CHO-K1-BH4 (HGPRT), Metabolic Activation: NONE): inactive; negative | mutagenic call (Test System: CHINESE HAMSTER OVARY, Strain/Indicator: CHO-K1-BH4 (HGPRT), Metabolic Activation: RAT, LIVER, S-9, 3-METHYLCHOLANTHRENE): inactive; negative
